Experimental data published in ChEMBL document CHEMBL3046788, “Synthesis and antifungal activity of N-(substituted pyridinyl)-1-methyl(phenyl)-3-(trifluoromethyl)-1H-pyrazole-4-carboxamide derivatives” (Molecules, 2012).
≈ marks a conversion by molar mass, not a printed value.

Key:
Fusarium graminearum [1] = assay: microbe, parasite or virus in culture; assay type: functional; details: read-out: GI
Fusarium oxysporum [2] = assay: Antifungal activity against Fusarium oxysporum assessed as inhibition of mycelium growth at 100 ug/ml; assay type: functional; details: read-out: GI
Cytospora [3] = assay: Antifungal activity against Cytospora mandshurica assessed as inhibition of mycelium growth at 100 ug/ml; assay type: functional; details: read-out: GI
Cytospora [4] = assay: Antifungal activity against Cytospora mandshurica assessed as inhibition of mycelium growth; assay type: functional, organism-based
Fusarium oxysporum [5] = assay: Antifungal activity against Fusarium oxysporum assessed as inhibition of mycelium growth; assay type: functional, organism-based
Fusarium graminearum [6] = assay: Antifungal activity against Fusarium graminearum assessed as inhibition of mycelium growth; assay type: functional, organism-based

`Cn1cc(C(=O)Nc2ccc(C(F)(F)F)cn2)c(C(F)(F)F)n1` showed an inhibition of growth at 100 µg/mL (Fusarium graminearum [1]) of 51.6%, an inhibition of growth at 100 µg/mL (Fusarium oxysporum [2]) of 39.1% and an inhibition of growth at 100 µg/mL (Cytospora [3]) of 35.6%.
In the case of `Cn1cc(C(=O)Nc2ccc(Br)cn2)c(C(F)(F)F)n1`, the inhibition of growth at 100 µg/mL (Fusarium graminearum [1]) is reported as 73.2%, the EC50 (Cytospora [4]) is reported as 132 µg/mL (≈ 380 µM) and the inhibition of growth at 100 µg/mL (Fusarium oxysporum [2]) is reported as 53.5%. For the same molecule, the inhibition of growth at 100 µg/mL (Cytospora [3]) was 48.7%, the EC50 (Fusarium oxysporum [5]) was 97.8 µg/mL (≈ 280 µM) and the EC50 (Fusarium graminearum [6]) was 76.3 µg/mL (≈ 219 µM).
Molecule `Cn1cc(C(=O)Nc2ccnc(Cl)c2)c(C(F)(F)F)n1` has an inhibition of growth at 100 µg/mL (Fusarium graminearum [1]) of 60.1%, an inhibition of growth at 100 µg/mL (Fusarium oxysporum [2]) of 5.9% and an inhibition of growth at 100 µg/mL (Cytospora [3]) of 9.1%.
In the case of `Cc1cccc(NC(=O)c2cn(C)nc2C(F)(F)F)n1`, the inhibition of growth at 100 µg/mL (Fusarium graminearum [1]) is reported as 34.7%, the inhibition of growth at 100 µg/mL (Fusarium oxysporum [2]) is reported as 22.3% and the inhibition of growth at 100 µg/mL (Cytospora [3]) is reported as 20.8%.
`Cn1cc(C(=O)Nc2ccccn2)c(C(F)(F)F)n1` showed an inhibition of growth at 100 µg/mL (Fusarium graminearum [1]) of 40.9%, an inhibition of growth at 100 µg/mL (Fusarium oxysporum [2]) of 19.5% and an inhibition of growth at 100 µg/mL (Cytospora [3]) of 9%.
Molecule `Cn1cc(C(=O)Nc2ccncc2)c(C(F)(F)F)n1` has an inhibition of growth at 100 µg/mL (Fusarium graminearum [1]) of 26.3%, an inhibition of growth at 100 µg/mL (Fusarium oxysporum [2]) of 11.8% and an inhibition of growth at 100 µg/mL (Cytospora [3]) of 2.9%.
In the case of `Cc1ccnc(NC(=O)c2cn(C)nc2C(F)(F)F)c1`, the inhibition of growth at 100 µg/mL (Fusarium graminearum [1]) is reported as 25.2%, the inhibition of growth at 100 µg/mL (Fusarium oxysporum [2]) is reported as 6.9% and the inhibition of growth at 100 µg/mL (Cytospora [3]) is reported as 1.74%.
With `Cn1cc(C(=O)Nc2ccc(F)cn2)c(C(F)(F)F)n1` the inhibition of growth at 100 µg/mL (Fusarium graminearum [1]) was 30.4%, the inhibition of growth at 100 µg/mL (Fusarium oxysporum [2]) was 22.5% and the inhibition of growth at 100 µg/mL (Cytospora [3]) was 13.6%.
Work on `Cn1cc(C(=O)Nc2cccnc2Cl)c(C(F)(F)F)n1` yielded an inhibition of growth at 100 µg/mL (Fusarium graminearum [1]) of 40.4%, an inhibition of growth at 100 µg/mL (Fusarium oxysporum [2]) of 14.9% and an inhibition of growth at 100 µg/mL (Cytospora [3]) of 4.9%.
`Cc1ccc(NC(=O)c2cn(C)nc2C(F)(F)F)nc1` was tested, and the inhibition of growth at 100 µg/mL (Fusarium graminearum [1]) was 39.3%, the inhibition of growth at 100 µg/mL (Fusarium oxysporum [2]) was 8.3% and the inhibition of growth at 100 µg/mL (Cytospora [3]) was 0%.
For `Cn1cc(C(=O)Nc2ccc(Cl)cn2)c(C(F)(F)F)n1`, the inhibition of growth at 100 µg/mL (Fusarium graminearum [1]) was 26%, the inhibition of growth at 100 µg/mL (Fusarium oxysporum [2]) was 30.1% and the inhibition of growth at 100 µg/mL (Cytospora [3]) was 13.6%.
For `Cn1cc(C(=O)Nc2ccnc(Br)c2)c(C(F)(F)F)n1`, the inhibition of growth at 100 µg/mL (Fusarium graminearum [1]) was 25.2%, the inhibition of growth at 100 µg/mL (Fusarium oxysporum [2]) was 10.9% and the inhibition of growth at 100 µg/mL (Cytospora [3]) was 6.4%.
With `O=C(Nc1ccncc1)c1cn(-c2ccccc2)nc1C(F)(F)F` the inhibition of growth at 100 µg/mL (Fusarium graminearum [1]) was 11.3%, the inhibition of growth at 100 µg/mL (Fusarium oxysporum [2]) was 7.9% and the inhibition of growth at 100 µg/mL (Cytospora [3]) was 0%.
`O=C(Nc1ccnc(Cl)c1)c1cn(-c2ccccc2)nc1C(F)(F)F` was tested, and the inhibition of growth at 100 µg/mL (Fusarium graminearum [1]) was 16.2%, the inhibition of growth at 100 µg/mL (Fusarium oxysporum [2]) was 0% and the inhibition of growth at 100 µg/mL (Cytospora [3]) was 0%.
In the case of `O=C(Nc1ccnc(Br)c1)c1cn(-c2ccccc2)nc1C(F)(F)F`, the inhibition of growth at 100 µg/mL (Fusarium graminearum [1]) is reported as 10.7%, the inhibition of growth at 100 µg/mL (Fusarium oxysporum [2]) is reported as 5.7% and the inhibition of growth at 100 µg/mL (Cytospora [3]) is reported as 0%.
Work on `O=C(Nc1ccccn1)c1cn(-c2ccccc2)nc1C(F)(F)F` yielded an inhibition of growth at 100 µg/mL (Fusarium graminearum [1]) of 35.2%, an inhibition of growth at 100 µg/mL (Fusarium oxysporum [2]) of 23.9% and an inhibition of growth at 100 µg/mL (Cytospora [3]) of 17%.
Work on `O=C(Nc1ccncc1Br)c1cn(-c2ccccc2)nc1C(F)(F)F` yielded an inhibition of growth at 100 µg/mL (Fusarium graminearum [1]) of 22.6%, an inhibition of growth at 100 µg/mL (Fusarium oxysporum [2]) of 27.2% and an inhibition of growth at 100 µg/mL (Cytospora [3]) of 8.4%.
Work on `Cc1cnccc1NC(=O)c1cn(-c2ccccc2)nc1C(F)(F)F` yielded an inhibition of growth at 100 µg/mL (Fusarium graminearum [1]) of 6.7%, an inhibition of growth at 100 µg/mL (Fusarium oxysporum [2]) of 11.5% and an inhibition of growth at 100 µg/mL (Cytospora [3]) of 6.1%.
`Cc1cc(NC(=O)c2cn(-c3ccccc3)nc2C(F)(F)F)ccn1` gave an inhibition of growth at 100 µg/mL (Fusarium graminearum [1]) of 9.8%, an inhibition of growth at 100 µg/mL (Fusarium oxysporum [2]) of 4.23% and an inhibition of growth at 100 µg/mL (Cytospora [3]) of 0%.
In the case of `O=C(Nc1cccnc1)c1cn(-c2ccccc2)nc1C(F)(F)F`, the inhibition of growth at 100 µg/mL (Fusarium graminearum [1]) is reported as 6.1%, the inhibition of growth at 100 µg/mL (Fusarium oxysporum [2]) is reported as 10.6% and the inhibition of growth at 100 µg/mL (Cytospora [3]) is reported as 0%.
For `O=C(Nc1ccc(Cl)cn1)c1cn(-c2ccccc2)nc1C(F)(F)F`, the inhibition of growth at 100 µg/mL (Fusarium graminearum [1]) was 16.5%, the inhibition of growth at 100 µg/mL (Fusarium oxysporum [2]) was 14.2% and the inhibition of growth at 100 µg/mL (Cytospora [3]) was 10.1%.
`Cc1ccc(NC(=O)c2cn(-c3ccccc3)nc2C(F)(F)F)nc1` showed an inhibition of growth at 100 µg/mL (Fusarium graminearum [1]) of 6.4%, an inhibition of growth at 100 µg/mL (Fusarium oxysporum [2]) of 20.5% and an inhibition of growth at 100 µg/mL (Cytospora [3]) of 0%.
Work on `O=C(Nc1ccccc1-c1ccc(Cl)cc1)c1cccnc1Cl` [BOSCALID] yielded an inhibition of growth at 100 µg/mL (Fusarium graminearum [1]) of 35.9%, an inhibition of growth at 100 µg/mL (Fusarium oxysporum [2]) of 4.3% and an inhibition of growth at 100 µg/mL (Cytospora [3]) of 3.4%.
Work on `CC1=C(C(=O)Nc2ccccc2)SCCO1` [CARBOXIN] yielded an inhibition of growth at 100 µg/mL (Fusarium graminearum [1]) of 56.3% and an inhibition of growth at 100 µg/mL (Fusarium oxysporum [2]) of 23.6%.
